A value given as a limit tells only on which side of the number the result lay.

A word on the IC50: it is the concentration that gives 50% inhibition.

The target of the test is JAK1 (Homo sapiens (Human), UniProt P23458). In words: Analysis of JAK1 activity inhibition ability (ADP-Glo Kinase Assay). Type of test: biochemical. As to conditions: JAK1 enzyme, ADP-Glo luminescence, ATP 250 uM, IRS-itide substrate, 30° C. 40 minutes; read-out: IC50. In outline:
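JAK1 enzyme, IRS-itide substrate (40 ng/mL) and 250 uM ATP, both as prepared in kinase buffer (Tris-HCl pH 7.5, MgCl2, BSA, DTT), reacted with compound 40 min at 30 °C. ADP formed was detected by ADP-Glo luminescence; IC50 is the concentration giving 50% inhibition versus control.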
Background: In ADP-Glo the light output rises with the ADP produced.

JAK1, sequence (P23458 whole entry): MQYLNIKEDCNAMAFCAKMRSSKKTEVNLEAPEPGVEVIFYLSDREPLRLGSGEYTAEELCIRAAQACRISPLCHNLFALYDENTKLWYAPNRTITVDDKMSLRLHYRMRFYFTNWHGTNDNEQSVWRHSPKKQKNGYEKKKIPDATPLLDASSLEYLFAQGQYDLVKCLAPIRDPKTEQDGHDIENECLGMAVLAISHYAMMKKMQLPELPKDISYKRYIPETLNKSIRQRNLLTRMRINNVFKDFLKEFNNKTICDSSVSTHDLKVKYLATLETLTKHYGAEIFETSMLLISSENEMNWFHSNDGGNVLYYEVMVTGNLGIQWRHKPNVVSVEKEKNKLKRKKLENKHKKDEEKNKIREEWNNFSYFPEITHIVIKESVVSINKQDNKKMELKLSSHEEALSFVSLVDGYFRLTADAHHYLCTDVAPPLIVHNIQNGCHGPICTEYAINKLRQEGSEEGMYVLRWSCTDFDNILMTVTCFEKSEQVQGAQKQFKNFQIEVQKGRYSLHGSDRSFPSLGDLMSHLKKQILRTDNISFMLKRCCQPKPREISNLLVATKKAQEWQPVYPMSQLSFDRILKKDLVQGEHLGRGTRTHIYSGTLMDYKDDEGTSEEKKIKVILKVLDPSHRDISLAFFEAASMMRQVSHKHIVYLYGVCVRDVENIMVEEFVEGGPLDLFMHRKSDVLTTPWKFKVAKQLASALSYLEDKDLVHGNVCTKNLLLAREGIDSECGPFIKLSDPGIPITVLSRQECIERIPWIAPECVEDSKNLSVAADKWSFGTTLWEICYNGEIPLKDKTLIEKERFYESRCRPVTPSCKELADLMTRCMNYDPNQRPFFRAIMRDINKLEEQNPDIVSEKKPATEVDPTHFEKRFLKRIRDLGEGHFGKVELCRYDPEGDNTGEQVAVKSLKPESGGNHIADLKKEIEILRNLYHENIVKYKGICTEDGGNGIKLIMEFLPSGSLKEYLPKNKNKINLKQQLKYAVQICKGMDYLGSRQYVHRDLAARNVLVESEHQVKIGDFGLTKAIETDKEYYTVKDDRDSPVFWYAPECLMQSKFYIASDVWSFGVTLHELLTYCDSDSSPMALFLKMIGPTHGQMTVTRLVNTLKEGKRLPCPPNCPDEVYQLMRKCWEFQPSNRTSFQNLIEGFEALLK

In the case of `CC(C)(C)OC(=O)N1CC2CCC(C1)N2c1cc(NC(=O)C2CC2)nc2[nH]ccc12` [Example 694, tert-butyl 8-(6-(cyclopropanecarboxamido)-1H-pyrrolo[2,3-b]pyridin-4-yl)-3,8-diazabicyclo[3.2.1]octane-3-carboxylate], the IC50 is above 0.2 µM.

For the compound `CC(C)(C)OC(=O)N1C2CCC1CN(c1nc(NC(=O)C3CC3)nc3[nH]ccc13)C2` [Example 695, tert-butyl 3-(2-(cyclopropanecarboxamido)-7H-pyrrolo[2,3-d]pyrimidin-4-yl)-3,8-diazabicyclo[3.2.1]octane-8-carboxylate], the IC50 is 0.02 to 0.2 µM. Turning to `CC(C)(C)OC(=O)N[C@H]1CCN(c2nc(NC(=O)C3CC3)nc3[nH]ccc23)C1` [Example 696, tert-butyl (S)-(1-(2-(cyclopropanecarboxamido)-7H-pyrrolo[2,3-d]pyrimidin-4-yl)pyrrolidin-3-yl)carbamate], the half-maximal inhibitory concentration (IC50) was above 0.2 µM. Turning to `CC(C)(C)OC(=O)N[C@H]1CCN(c2cc(NC(=O)C3CC3)nc3[nH]ccc23)C1` [Example 697, tert-butyl (S)-(1-(6-(cyclopropanecarboxamido)-1H-pyrrolo[2,3-b]pyridin-4-yl)pyrrolidin-3-yl)carbamate], the IC50 is above 0.2 µM. As for `O=C(Nc1cc(N2CCN(Cc3ccns3)CC2)c2cc[nH]c2n1)C1CC1` [Example 698, N-(4-(4-(isothiazol-5-ylmethyl)piperazin-1-yl)-1H-pyrrolo[2,3-b]pyridin-6-yl)cyclopropanecarboxamide], the IC50 lay within 0.02 to 0.2 µM. The same measure for `O=C(Nc1cc(N2CCN(C[C@@H]3CC3(F)F)CC2)c2cc[nH]c2n1)C1CC1` [Example 699, (S)—N-(4-(4-((2,2-difluorocyclopropyl)methyl)piperazin-1-yl)-1H-pyrrolo[2,3-b]pyridin-6-yl)cyclopropanecarboxamide]: 0.02 to 0.2 µM.

Consider `CCS(=O)(=O)N1CC(CC#N)(N2CCN(c3cc(NC(=O)C4CC4)nc4[nH]ccc34)CC2)C1` [Example 700, N-(4-(4-(3-(cyanomethyl)-1-(ethylsulfonyl)azetidin-3-yl)piperazin-1-yl)-1H-pyrrolo[2,3-b]pyridin-6-yl)cyclopropanecarboxamide], for which the IC50 is above 0.2 µM.

On to `CCS(=O)(=O)N1CC(CC#N)(N2C3CCC2CN(c2cc(NC(=O)C4CC4)nc4[nH]ccc24)C3)C1` [Example 701, N-(4-(8-(3-(cyanomethyl)-1-(ethylsulfonyl)azetidin-3-yl)-3,8-diazabicyclo[3.2.1]octan-3-yl)-1H-pyrrolo[2,3-b]pyridin-6-yl)cyclopropanecarboxamide], for which the IC50 is above 0.2 µM.

On to `O=C(Nc1cc(N2CCN(CC(=O)N3CCS(=O)(=O)CC3)CC2)c2cc[nH]c2n1)C1CC1` [Example 702, N-(4-(4-(2-(1,1-dioxidothiomorpholino)-2-oxoethyl)piperazin-1-yl)-1H-pyrrolo[2,3-b]pyridin-6-yl)cyclopropanecarboxamide], for which the half-inhibitory concentration (IC50) was above 0.2 µM. Then `N#C[C@H]1CCCN1C(=O)CN1C2CCC1CN(c1cc(NC(=O)C3CC3)nc3[nH]ccc13)C2` [Example 703, N-(4-(8-(2-((R)-2-cyanopyrrolidin-1-yl)-2-oxoethyl)-3,8-diazabicyclo[3.2.1]octan-3-yl)-1H-pyrrolo[2,3-b]pyridin-6-yl)cyclopropanecarboxamide], with above 0.2 µM; and `O=C(Nc1nc(N2CC3CCC(C2)N3CC(=O)N2CCS(=O)(=O)CC2)c2cc[nH]c2n1)C1CC1` [Example 704, N-(4-(8-(2-(1,1-dioxidothiomorpholino)-2-oxoethyl)-3,8-diazabicyclo[3.2.1]octan-3-yl)-7H-pyrrolo[2,3-d]pyrimidin-2-yl)cyclopropanecarboxamide], with above 0.2 µM; and `C[C@@H]1CN(C(=O)CC#N)CC=C1c1cc(N)nc2[nH]ccc12` [Example 705, (S)-3-(4-(6-amino-1H-pyrrolo[2,3-b]pyridin-4-yl)-3-methyl-3,6-dihydropyridin-1 (2H)-yl)-3-oxopropanenitrile], with above 0.2 µM.

For the compound `CCS(=O)(=O)Nc1ccc(-c2cc(NC(C)=O)nc3[nH]ccc23)cc1F` [Example 710, N-(4-(4-(ethylsulfonamido)-3-fluorophenyl)-1H-pyrrolo[2,3-b]pyridin-6-yl)acetamide], the IC50 is 0.02 to 0.2 µM.

For `CCS(=O)(=O)Nc1ccc(-c2cc(NC(=O)C(C)C)nc3[nH]ccc23)cc1F` [Example 711, N-(4-(4-(ethylsulfonamido)-3-fluorophenyl)-1H-pyrrolo[2,3-b]pyridin-6-yl)isobutyramide], the IC50 was above 0.2 µM. Take `CCCC(=O)Nc1cc(-c2ccc(NS(=O)(=O)CC)c(F)c2)c2cc[nH]c2n1` [Example 712, N-(4-(4-(ethylsulfonamido)-3-fluorophenyl)-1H-pyrrolo[2,3-b]pyridin-6-yl)butyramide]: the IC50 is above 0.2 µM. In the case of `CCS(=O)(=O)Nc1ccc(-c2cc(NCC3CC3)nc3[nH]ccc23)cc1F` [Example 713, N-(4-(6-((cyclopropylmethyl)amino)-1H-pyrrolo[2,3-b]pyridin-4-yl)-2-fluorophenyl)ethanesulfonamide], the 50% inhibitory concentration (IC50) is above 0.2 µM. As to `CCS(=O)(=O)Nc1ccc(-c2cc(N/C(=N\C)C3CC3)nc3[nH]ccc23)cc1` [Example 714, (Z)—N-(4-(4-(ethylsulfonamido)phenyl)-1H-pyrrolo[2,3-b]pyridin-6-yl)-N′-methylcyclopropanecarboximidamide], the IC50 is above 0.2 µM. Then `CCS(=O)(=O)Nc1ccc(-c2cc(NC(=S)C3CC3)nc3[nH]ccc23)cc1` [Example 715, N-(4-(4-(ethylsulfonamido)phenyl)-1H-pyrrolo[2,3-b]pyridin-6-yl)cyclopropanecarbothioamide], with 0.02 to 0.2 µM; and `CCS(=O)(=O)Nc1ccc(-c2cc(NS(=O)(=O)C3CC3)nc3[nH]ccc23)cc1F` [Example 716, N-(4-(4-(ethylsulfonamido)-3-fluorophenyl)-1H-pyrrolo[2,3-b]pyridin-6-yl)cyclopropanesulfonamide], with above 0.2 µM; and `O=C(Nc1cc(-c2ccc(CN3CCS(=O)(=O)CC3)cc2)c2cc[nH]c2n1)NC1CC1` [Example 717, 1-cyclopropyl-3-(4-(4-((1,1-dioxidothiomorpholino)methyl)phenyl)-1H-pyrrolo[2,3-b]pyridin-6-yl)urea], with 0.02 to 0.2 µM. For the compound `CN(C)c1nc(-c2ccc(NS(=O)(=O)c3ccc(F)c(F)c3)cc2)c2cc[nH]c2n1` [Example 718, N-(4-(2-(dimethylamino)-7H-pyrrolo[2,3-d]pyrimidin-4-yl)phenyl)-3,4-difluorobenzenesulfonamide], the concentration for half-maximal inhibition (IC50) is above 0.2 µM. Consider `CCS(=O)(=O)Nc1ccc(-c2nc(Nc3ccccc3)nc3[nH]ccc23)cc1F` [Example 719, N-(2-fluoro-4-(2-(phenylamino)-7H-pyrrolo[2,3-d]pyrimidin-4-yl)phenyl)ethanesulfonamide], for which the 50% inhibitory concentration (IC50) lay in the range of 0.02 to 0.2 µM. For `CCS(=O)(=O)Nc1ccc(-c2nc(Nc3ccccc3)nc3[nH]ccc23)cc1` [Example 720, N-(4-(2-(phenylamino)-7H-pyrrolo[2,3-d]pyrimidin-4-yl)phenyl)ethanesulfonamide], the IC50 lay in the range of 0.02 to 0.2 µM.

For `N#CCC(=O)N1C2CCC1CN(c1nc(Nc3ccccc3)nc3[nH]ccc13)C2` [Example 721, 3-oxo-3-(3-(2-(phenylamino)-7H-pyrrolo[2,3-d]pyrimidin-4-yl)-3,8-diazabicyclo[3.2.1]octan-8-yl)propanenitrile], the IC50 was in the range of 0.02 to 0.2 µM.

The values are drawn from patent publication US11524968B2, “Heterocyclic compound as a protein kinase inhibitor” (HK inno.N Corporation, priority 2017, dated 2022).
